Test results: patent US11597703B2, “Caspase inhibitors and methods of use thereof” (Histogen Inc., priority 2019, dated 2023)

Tests used:
Caspase-3 = target: T1, Caspase-3 (Homo sapiens, UniProt P42574); test: Caspase-3 enzymatic inhibition assay, IC50; format: biochemical; conditions: read-out: Caspase 3 enzyme inhibition IC50
T1 construct: purchased Enzo Biosciences
T1 sequence (P42574 29-175 limits assumed): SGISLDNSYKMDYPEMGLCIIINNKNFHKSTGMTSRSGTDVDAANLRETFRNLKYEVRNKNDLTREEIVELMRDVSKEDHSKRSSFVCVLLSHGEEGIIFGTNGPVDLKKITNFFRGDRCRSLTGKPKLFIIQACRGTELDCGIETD
T1 sequence (P42574 176-277 limits assumed): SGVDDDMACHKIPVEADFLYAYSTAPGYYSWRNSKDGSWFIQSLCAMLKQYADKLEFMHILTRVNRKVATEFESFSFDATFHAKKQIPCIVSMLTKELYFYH
Method: (§1) Human caspases were purchased from Enzo Biosciences and used according to the manufacturer's instructions. An exemplary caspase assay, for Caspase-1, is provided below:
(§2) Enzymatic assays were conducted for Caspase-3, 6 and 7 activity according to the manufacture's instructions.

Caspase 7 = target: T2, Caspase 7 (Homo sapiens, UniProt P55210); test: Caspase 7 enzymatic inhibition assay, IC50; format: biochemical; conditions: read-out: Caspase 7 enzyme inhibition IC50
T2 construct: purchased Enzo Biosciences
T2 sequence (P55210 24-198 limits assumed): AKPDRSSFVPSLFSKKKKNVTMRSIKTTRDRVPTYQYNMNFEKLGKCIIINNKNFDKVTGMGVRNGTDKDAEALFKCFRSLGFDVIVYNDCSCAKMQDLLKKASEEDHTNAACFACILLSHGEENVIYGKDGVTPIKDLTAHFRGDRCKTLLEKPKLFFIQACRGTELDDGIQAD
T2 sequence (P55210 207-303 limits assumed): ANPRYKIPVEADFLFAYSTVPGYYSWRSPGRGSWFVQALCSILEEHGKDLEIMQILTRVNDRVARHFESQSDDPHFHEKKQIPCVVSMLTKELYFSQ
Method: as §1, §2

IL-1β = test: Inhibition of LPS-stimulated IL-1β in THP-1 cells (ELISA); format: cell-based, human; conditions: 10 micromolar; for inhibition at 10 µM: Homo sapiens, read-out: Percent Inhibition of IL1-β
Method: Compounds in the present invention were tested in THP-1 cells, a human monocyte cell line, to assess the inhibition of the inflammatory cytokine IL-1β. THP-1 cells (ATCC TIB-202) were grown in culture and seeded in 96 well plates at a concentration of 200,000 cells per well with a total volume of 150 μL. Plated cells were incubated overnight at 37 degrees C. under an atmosphere of 5% CO2. Media was removed from cells which were washed with PBS. Test compounds were diluted in DMSO stock solution and serially diluted appropriately for initial screening and IC50 determinations. LPS in serum free media (140 μL of […]) was added to each well to stimulate IL-1β production. IL-1β was measured by ELISA assay kit (R&D Systems) per the manufacturers instructions.
IC50 values for the inhibition of IL-1 in THP 1 cells were determined from dose response studies.

Caspase 6 = target: T3, Caspase 6 (Homo sapiens, UniProt P55212); test: Caspase 6 enzymatic inhibition assay, IC50; format: biochemical; conditions: read-out: Caspase 6 enzyme inhibition IC50
T3 construct: purchased Enzo Biosciences
T3 sequence (P55212 24-179 limits assumed): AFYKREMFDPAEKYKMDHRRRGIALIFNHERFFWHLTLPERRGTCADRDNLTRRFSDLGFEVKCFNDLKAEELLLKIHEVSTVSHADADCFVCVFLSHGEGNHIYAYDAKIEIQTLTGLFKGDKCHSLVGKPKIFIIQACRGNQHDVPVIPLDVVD
T3 sequence (P55212 194-293 limits assumed): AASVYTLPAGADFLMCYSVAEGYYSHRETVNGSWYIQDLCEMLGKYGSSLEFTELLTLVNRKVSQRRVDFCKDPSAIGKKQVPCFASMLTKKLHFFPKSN
Method: as §1, §2

Jurkat cells = test: Prevention of Fas-induced apoptosis in Jurkat cells (WST-8); format: cell-based; conditions: Homo sapiens, 10 micromolar, read-out: % Prevention of Fas - induced Jurkat cell apoptosis at 10 micromolar
Method: Compounds of the present invention were evaluated in Jurkat cells, a human T-lymphocyte cell line, to evaluate compounds ability to inhibit apoptotic cell death. Jurkat cells, Clone E6-1 (ATCC TIB-152) were grown in culture maintain a cell density between 0.5-2 million cells/mL. Cells were tested for viability and countion with typan blue stain before use. Test compounds were addedd to 96 well plates and Jurkat cells were added at a concentration of approximately 100,000 cells per well and mixed thoroughly by action of pipetting. Plated cells were incubated for 1 hour at 37 degrees C. under an atmosphere of 5% CO2. Anti-Fas antibody was added and mixed by pipet action. Plates were incubated for 20 hours at 37 degrees C. under an atmosphere of 5% CO2. 10 microliters of thawed WST-8 solution was added to each well and incubated for 4 hours. Absorbance was measured at 450 nm and control reading at […] using a SpectraMax ID5 plate reader. Apoptotic cell death is executed by caspases 3, 7 and 6. Compounds that lack activity against these caspases will not prevent the death of Jurkat cells and is a functional test of selectivity for inflammatory over apoptotic caspases.
IC50 values to protect against Fas induced apoptosis and improve survival of Jurkat cells were determined from dose response studies.

Caspase-1 = target: T4, Caspase-1 (Homo sapiens, UniProt P29466); test: Caspase-1 enzyme inhibition assay (Ac-YVAD-pNA substrate), IC50; format: biochemical
T4 construct: purchased Enzo Biosciences
T4 sequence (P29466 120-297 limits assumed): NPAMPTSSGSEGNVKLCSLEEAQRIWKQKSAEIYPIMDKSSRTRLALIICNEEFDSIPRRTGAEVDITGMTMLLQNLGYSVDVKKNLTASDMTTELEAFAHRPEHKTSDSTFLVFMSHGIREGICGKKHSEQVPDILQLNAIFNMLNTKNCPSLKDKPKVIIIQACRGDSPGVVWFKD
T4 sequence (P29466 317-404 limits assumed): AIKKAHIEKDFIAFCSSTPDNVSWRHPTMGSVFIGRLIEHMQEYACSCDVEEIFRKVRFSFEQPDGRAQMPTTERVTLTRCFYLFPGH
Method: as §1
Caspase-1 was diluted to 10 U/μl in assay buffer consisting of 50 mM HEPES, pH 7.4, 100 mM NaCl, 0.1% CHAPS, 1 mM EDTA, 10% glycerol and 10 mM DTT.
45 μl of assay buffer was added into ½ volume microtiter plate. The plate was allowed to equilibrate to assay temperature. 5 μl of Caspase-1 (10 U/μl) was added to each appropriate well. Two 2 blank wells containing assay buffer alone without Caspase-1 were included on the plate.
The reaction was started by the addition of 50 μl Ac-YVAD-pNA substrate, for a final substrate concentration of 200 μM. The reaction was continuously monitored at 405 nm. The data was graphed as OD405 nm vs time, and the slope was determined over the linear portion of the curve. The rates in OD/min were converted to substrate/min using an extinction coefficient for p-nitroaniline of 10,500M-1 cm-1, and were adjusted for pathlength of sample. […]

IC50 (Caspase-3)	IC50 (Caspase 7)	IC50 (Caspase 6)	IC50 (Caspase-1)	Compound	inhibition at 10 µM (IL-1β)	inhibition at 10 µM (Jurkat cells)	Percent Inhibition of IL1-β (IL-1β)
≥ 1000 nM	≥ 1000 nM	≥ 1000 nM	10 to 100 nM	C[C@H](NC(=O)C(=O)Nc1c(F)cccc1F)C(=O)N[C@@H](CCOCc1ccccc1)C(=O)COc1c(F)c(F)cc(F)c1F [Example 1, N^1-((S)-1-(((S)-5-(Benzyloxy)-2-oxo-1-(2,3,5,6-tetrafluorophenoxy)pentan-3-yl)amino)-1-oxopropan-2-yl)-N^2-(2,6-difluorophenyl)oxalamide]	50 to 90%	≤ 10%	
≥ 1000 nM	≥ 1000 nM	≥ 1000 nM	10 to 100 nM	C[C@H](NC(=O)C(=O)Nc1c(F)cccc1F)C(=O)N[C@@H](CCO)C(=O)COc1c(F)c(F)cc(F)c1F [Example 2, N^1-(2,6-Difluorophenyl)-N^2—((S)-1-(((S)-5-hydroxy-2-oxo-1-(2,3,5,6-tetrafluorophenoxy)pentan-3-yl)amino)-1-oxopropan-2-yl)oxalamide]	50 to 90%	≤ 10%	
≥ 1000 nM	≥ 1000 nM	≥ 1000 nM	100 to 1000 nM	C[C@H](NC(=O)C(=O)Nc1c(F)cccc1F)C(=O)N[C@@H](CCOCc1ccc(Cl)cc1)C(=O)COc1c(F)c(F)cc(F)c1F [Example 3, N^1—((S)-1-(((S)-5-((4-Chlorobenzyl)oxy)-2-oxo-1-(2,3,5,6-tetrafluorophenoxy)pentan-3-yl)amino)-1-oxopropan-2-yl)-N^2-(2,6-difluorophenyl)oxalamide]	25 to 50%	≤ 10%	
≥ 1000 nM	≥ 1000 nM	≥ 1000 nM	≤ 10 nM	C[C@H](NC(=O)C(=O)Nc1c(F)cccc1F)C(=O)N[C@@H](CCC(=O)O)C(=O)COc1cc(C(F)(F)F)nc(C(F)(F)F)n1 [Example 33, (S)-6-((2,6-bis(trifluoromethyl)pyrimidin-4-yl)oxy)-4-((S)-2-(2-((2,6-difluorophenyl)amino)-2-oxoacetamido)propanamido)-5-oxohexanoic acid]			
≥ 1000 nM	≥ 1000 nM	≥ 1000 nM	≤ 10 nM	C[C@H](NC(=O)C(=O)Nc1ccc(OC(F)(F)F)cc1)C(=O)N[C@@H](CCC(=O)O)C(=O)COc1c(F)c(F)cc(F)c1F [Example 34, (S)-5-oxo-4-((S)-2-(2-oxo-2-((4-(trifluoromethoxy)phenyl)amino)acetamido)propanamido)-6-(2,3,5,6-tetrafluorophenoxy) hexanoic acid]			
≥ 1000 nM	≥ 1000 nM	≥ 1000 nM	≤ 10 nM	C[C@H](NC(=O)C(=O)Nc1cnc2ccccc2c1)C(=O)N[C@@H](CCC(=O)O)C(=O)COc1c(F)c(F)cc(F)c1F [Example 35, (S)-5-oxo-4-((S)-2-(2-oxo-2-(quinolin-3-ylamino)acetamido)propanamido)-6-(2,3,5,6-tetrafluorophenoxy)hexanoic acid]			
≥ 1000 nM	≥ 1000 nM	≥ 1000 nM	≤ 10 nM	C[C@H](NC(=O)C(=O)Nc1cccc2cccnc12)C(=O)N[C@@H](CCC(=O)O)C(=O)COc1c(F)c(F)cc(F)c1F [Example 36, (S)-5-oxo-4-((S)-2-(2-oxo-2-(quinolin-8-ylamino)acetamido)propanamido)-6-(2,3,5,6-tetrafluorophenoxy)hexanoic acid]			
≥ 1000 nM	≥ 1000 nM	≥ 1000 nM	≤ 10 nM	C[C@H](NC(=O)C(=O)Nc1ccncc1)C(=O)N[C@@H](CCC(=O)O)C(=O)COc1c(F)c(F)cc(F)c1F [Example 37, (S)-5-oxo-4-((S)-2-(2-oxo-2-(pyridin-4-ylamino)acetamido)propanamido)-6-(2,3,5,6-tetrafluorophenoxy)hexanoic acid]			
≥ 1000 nM	≥ 1000 nM	≥ 1000 nM	≤ 10 nM	C[C@H](NC(=O)C(=O)Nc1c(F)cccc1F)C(=O)N[C@H](CCC(=O)O)C(=O)COc1c(F)c(F)cc(F)c1F [Example 38, (R)-4-((S)-2-(2-((2,6-difluorophenyl)amino)-2-oxoacetamido)propanamido)-5-oxo-6-(2,3,5,6-tetrafluorophenoxy)hexanoic acid]			
≥ 1000 nM	≥ 1000 nM	≥ 1000 nM	≤ 10 nM	C[C@H](NC(=O)C(=O)Nc1ccccn1)C(=O)N[C@@H](CCC(=O)O)C(=O)COc1c(F)c(F)cc(F)c1F [Example 39, (S)-5-oxo-4-((S)-2-(2-oxo-2-(pyridin-2-ylamino)acetamido)propanamido)-6-(2,3,5,6-tetrafluorophenoxy)hexanoic acid]			
≥ 1000 nM	≥ 1000 nM	≥ 1000 nM	≤ 10 nM	C[C@H](NC(=O)C(=O)Nc1cccnc1)C(=O)N[C@@H](CCC(=O)O)C(=O)COc1c(F)c(F)cc(F)c1F [Example 40, (S)-5-oxo-4-((S)-2-(2-oxo-2-(pyridin-3-ylamino)acetamido)propanamido)-6-(2,3,5,6-tetrafluorophenoxy)hexanoic acid]			
≥ 1000 nM	≥ 1000 nM	≥ 1000 nM	≤ 10 nM	Cc1cc(C)nc(NC(=O)C(=O)N[C@@H](C)C(=O)N[C@@H](CCC(=O)O)C(=O)COc2c(F)c(F)cc(F)c2F)n1 [Example 41, (S)-4-((S)-2-(2-((4,6-dimethylpyrimidin-2-yl)amino)-2-oxoacetamido)propanamido)-5-oxo-6-(2,3,5,6-tetrafluorophenoxy)hexanoic acid]			
≥ 1000 nM	≥ 1000 nM	≥ 1000 nM	≤ 10 nM	C[C@H](NC(=O)C(=O)Nc1ncccn1)C(=O)N[C@@H](CCC(=O)O)C(=O)COc1c(F)c(F)cc(F)c1F [Example 42, (S)-5-oxo-4-((S)-2-(2-oxo-2-(pyrimidin-2-ylamino)acetamido)propanamido)-6-(2,3,5,6-tetrafluorophenoxy)hexanoic acid]			
				C[C@H](NC(=O)C(=O)Nc1c(F)cccc1F)C(=O)N[C@@H](CC(=O)O)C(=O)COc1c(F)c(F)cc(F)c1F [IDN-7314, reference compound]			A (A > 90%)
